# Results from patent US20120156230A1, “TREATMENT OF SPINAL CORD INJURY AND TRAUMATIC BRAIN INJURY USING PLACENTAL STEM CELLS” (priority 2010, published 2012).
# Assays:
# [1] = test system: T cells (Th1 skewing); assay: Th1 skewing culture; assay type: cell-based; details: BTR with IL-2, IL-12, anti-IL-4 cocktail
# Protocol: To investigate the molecular mechanism of action of PDAC-mediated suppression of Th1 skewing, IDO siRNA was transiently transfected into PDACs by standard techniques. Th1 skewing was carried out as for the BTR reactions (see above) but supplemented with an additional Th1 skewing cytokine cocktail containing IL-2 (200 IU/mL), IL-12 (2 ng/mL) and anti-IL-4 (0.4 μg/ml).
# [2] = test system: chick chorioallantoic membrane (CAM); assay: CAM angiogenesis assay using PDACs; assay type: in vivo; details: P<0.001, Student's t test
# Protocol: Two separate CAM assays were conducted. In the first CAM assay, intact cell pellets from different preparations of PDAC were evaluated. In the second CAM assay, supernatants of different PDAC preparations were evaluated. Fibroblast growth factor (bFGF) was used as a positive control, and MDA-MB-231 human breast cancer cells as a reference, vehicle and medium controls were used as negative controls. The endpoint of the study was to determine the blood vessel densities of all treatment and control groups.
# PDACs, prepared as described above and cryopreserved, were used. PDACs were thawed for dosing and the number of cells dosed on the CAM was determined. […]
# CAM Assay Procedure: Fresh fertile eggs were incubated for 3 days in a standard egg incubator at 37° C. for 3 days. […] On Day 8, embryos were removed from the incubator and kept at room temperature while blood vessel density was determined under each “O” ring using an image capturing system at a magnification of 100×.
# Blood vessel density was measured by an angiogenesis scoring system that used arithmetic numbers 0 to 5, or exponential numbers 1 to 32, to indicate the number of blood vessels present at the treatment sites on the CAM. […] The percent of inhibition at each dosing site was calculated using the score recorded for that site divided by the mean score obtained from control samples for each individual experiment. […]
# [3] = test system: chick chorioallantoic membrane (CAM); assay: CAM angiogenesis assay using PDAC supernatants; assay type: in vivo; details: supernatant mixed with MATRIGEL 1:1; PDAC supernatants P<0.01, P<0.001, P<0.02; bFGF P<0.001
# Source text: Supernatant samples from MDA-MB-231 cells and PDACs were used in a second CAM assay as described above. bFGF and MDA-MB-231 supernatants were used as positive controls, medium and vehicle were used as negative controls.
# Study Design: The study included 5 groups with 10 embryos in each group. The design of the study is described in Table 4.
# CAM Assay Procedure: The assay procedure was the same as described in section 6.3.1, above. The only difference was that supernatant from each stem cell preparation or from MDA-MB-231 cells was used as test material. For dosing, each supernatant was mixed with MATRIGEL™ (1:1 by volume) and […] of the mixture was dosed to each embryo.
# [4] = target: T1, indoleamine 2,3-dioxygenase (IDO) (Homo sapiens, UniProt P14902); assay: BTR T cell proliferation assay with IDO blockade; assay type: cell-based; details: 256 μM
# T1 construct: endogenous in cells; host or cells: PDACs (placental stem cells) co-cultured with T cells in the BTR assay
# T1 sequence (P14902 whole entry): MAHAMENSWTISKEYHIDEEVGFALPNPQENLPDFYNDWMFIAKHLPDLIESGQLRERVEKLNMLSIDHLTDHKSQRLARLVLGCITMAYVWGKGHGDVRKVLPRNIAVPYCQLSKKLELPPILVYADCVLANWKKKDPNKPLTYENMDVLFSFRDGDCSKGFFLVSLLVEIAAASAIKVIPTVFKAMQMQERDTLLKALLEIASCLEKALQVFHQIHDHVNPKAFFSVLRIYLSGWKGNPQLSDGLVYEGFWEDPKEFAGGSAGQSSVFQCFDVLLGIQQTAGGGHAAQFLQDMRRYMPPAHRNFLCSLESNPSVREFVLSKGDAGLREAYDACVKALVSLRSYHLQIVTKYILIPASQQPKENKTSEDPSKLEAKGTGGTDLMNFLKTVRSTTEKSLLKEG
# Source text: To investigate the mechanism of action of PDAC-mediated suppression of T cell proliferation, pharmacological inhibitors or neutralizing antibodies were used to block the activity of prostaglandin E2 (PGE2), inducible nitric oxide synthase (iNOS), transforming growth factor beta (TGF-β), interleukin-10 (IL-10) and IDO in an in vitro T cell proliferation assay (BTR).
rescue of T cell proliferation from PDAC-mediated suppression [4],Compound,rescue of PDAC-mediated suppression of Th1 skewing [1],blood vessel density score versus vehicle control CAMs [2],blood vessel induction versus vehicle controls [3]
,"Cn1cc(C[C@H](N)C(=O)O)c2ccccc21 [1 MT, 1-methyl tryptophan]",completely rescued,,
,bFGF: basic fibroblast growth factor (positive control),,statistically significantly higher,potent induction of blood vessel formation
substantially rescued,"N[C@@H](Cc1c[nH]c2ccccc12)C(=O)O [L-Trp, L-trptophan]",completely rescued,,
